Results on two molecules are retold here after patent US20180353512A1, “COMBINATION THERAPIES FOR TREATING B-CELL MALIGNANCIES” (GILEAD SCIENCES, INC., priority 2015, published 2018).

For one data set, the system named is TMD8 tumor xenograft. Nature of the data set: TMD8 tumor xenograft model, tumor volume. It is filed as in vivo, mice. Also noted: tumor growth: dose or concentration left out as unconfirmed. As to conditions: oral gavage. How it is done: A TMD8 tumor xenograft model was generated by introducing cultured TMD8 cells into irradiated mice. All animal experiments were performed in accordance with the Institutional Animal Care and Use Committee (IACUC) protocol. Male CB17-SCID mice were treated with 1.44 Gy whole body irradiation using a ^60Co radiation source, and seventy-four hours later, 1×10^7 TMD8 cells were inoculated subcutaneously into the right flank. When tumors reached a mean volume of 200 mm^3, mice were randomly assigned to groups (n=13). […] All test compounds were formulated in 5% (v/v) N-Methyl-2-pyrrolidone (NMP)/55% (v/v) Polyethylene Glycol 300 (PEG) 300/40% (v/v) Water/1% (w/v) Vitamin E D-α-Tocopherol Polyethylene Glycol 1000 Succinate (TPGS). Tumor volume was calculated using the following formula: (length×width^2)/2, where length is the longest diameter across the tumor and width is the corresponding perpendicular diameter. Tumor growth inhibition rate was calculated using the following formula: 1−(tumor sizeend of compound treatment−tumor sizebeginning of compound treatment/tumor sizeend of vehicle treatment−tumor sizebeginning of vehicle treatment)×100.
The Analysis of Variance model for repeated measure was used to determine the treatment effect on tumor growth. The model fitted on tumor volume included factors of treatment, time, and their interaction. […]

The subject of data set [1] is c-MYC. Nature of the data set: Immunohistochemistry of TMD8 xenograft tumor samples. Type of data set: in vivo, mice. As to conditions: PI3Kδ inhibitor 5 mg/kg, Compound B 10 mg/kg; data not shown. How it is done:
(§1) Paraffin sections of the tumor samples were prepared for immunohistochemistry. Slides were prepared with EZ Prep (Ventana Medical Systems) CC1 (Ventana Medical Systems) and rinsed with Reaction Buffer (Ventana Medical Systems). Slides were incubated with ChromoMap Inhibitor (Venatana Medical Systems) and rinsed a Reaction Buffer rinse before incubating with anti-pS6 (S235/236) rabbit monoclonal antibody (Cell Signaling Technology) at 0.02 ug/mL or anti-c-MYC rabbit monoclonal antibody (Abcam Inc.) at 0.3 ug/mL. After 1 hour at room temperature, the slides were incubated sequentially with Anti-Rabbit HQ (Ventana Medical Systems), Anti-HQ HRP (Ventana Medical Systems) hydrogen peroxide CM (Ventana Medical Systems), Copper CM (Ventana Medical Systems), and Hematoxylin II. Slides were imaged using the Leica AT2 digital slide scanner (Leica Microsystems Inc.) and documented in Digital Image Hub (DIH-SlidePath).

The next data set deals with p-S6 S235/236. The description is as above. Type of data set: in vivo, mice. To be noted: PI3Kδ inhibitor 5 mg/kg, Compound B 10 mg/kg; data not shown. How it is done: as §1
In the next data set the test system is TMD8. Nature of the data set: CellTiter-Glo viability assay at 96 h (Example 5). To be noted: Homo sapiens. Type of data set: cell-based. How it is done: (§2) Growth inhibition to Idelalisib or other inhibitors was assessed using CellTiter-Glo viability assay at 96 h. […] Cell lines were analyzed by whole exome sequencing, RNASeq, and phosphoproteomics. Protein expression was measured using Simple Western and SDS/PAGE and western blot. Caspase 3/7 was measured using Caspase-Glo 3/7 assay; apoptosis was measured with Annexin V assay and propidium iodide by flow cytometry.
(§3) Cell viability EC50 was determined using a sigmoidal dose-response (variable slope) curve generated from quadruplicate samples. Statistical significance was determined using the student's t-test for cell viability and two-tailed paired t-test for apoptosis experiments in Prism (GraphPad).
In general terms: In ATP-based viability assays light output follows the ATP content of the culture.

Data set [2] relates to TMD8^R (Idelalisib-resistant line). Briefly: CellTiter-Glo viability assay at 96 h. As to conditions: TMD8^R. It is filed as cell-based. The method, then:
as §2, §3
Idelalisib-resistant (TMD8^R) cell line and passage-matched Idelalisib-sensitive (TMD8^S) cell line were generated according to the procedure described in Example 5 above. To characterize the resistant cells, cell viability assays, RNASeq of multidrug resistance (MDR) family of ABC transporter genes (N=33), apoptosis assays, and phosphoprotein analysis were performed. Cell viability was measured using CellTiter-Glo, as described in Example 1A above. Western blot and protein level analysis were performed after treatment with 420 nM idelalisib, 320 nM Compound B and combination thereof, using Peggy Sue (ProteinSimple) automated Western Blot system. Protein concentration (pg/μL) was quantitated using recombinant protein standards. Normalized AUC were determined for each of the treatment groups, normalized to actin. Apoptosis was assessed by propidium iodide and Annexin V/FITC staining and measured by flow cytometry, as described in Example 1A above. Western Blot with anti-p-AKT (S473) antibody and Peggy Sue were used to determine the phosphorylation state of downstream signaling components.

Another data set relates to TMD8^R cells. Nature of the data set: Apoptosis, Annexin V assay and propidium iodide by flow cytometry. It is filed as cell-based. To be noted: Annexin V at 48 h, Idelalisib=1 μM. The method, then: as §2
Background: Flow cytometry measures light scatter and fluorescence of single cells or particles in a stream.

The subject of data set [3] is c-Myc. Briefly: c-Myc RNAseq and western blot in ABC-DLBCL cell lines. It is filed as cell-based. How it is done:
Gene expression levels and mutations were determined by […]. The following bioinformatics platforms were used to analyze the sequence reads: DNA sequencing reads were aligned to human reference genome by BWA. Single nucleotide variants were identified using VarScan and were annotated using SnpEff Putative somatic mutations were prioritized by mutant allele frequency, recurrence and predicted functional impact. RNA sequencing reads were aligned to human reference genome using STAR and RNA abundance was quantified using RSEM. The Bioconductor package edgeR was used to normalize sequence count and limma was used to conduct differential gene expression analysis.
Protein expression was measured using Simple Western, SDS/PAGE and Western Blot or Peggy Sue (ProteinSimple), generally according to the procedures described above in Example 3B. Primary antibodies used to test phosphorylated protein or total protein levels include antibodies against: p-AKT (S473), p-AKT (T308), AKT, p-ERK (T202/Y204), p-S6 (S235/236), S6, p-PDK1 (S241), p-PLCγ2 (Y1217), p-GSK3β (S9), p-STAT3 (Y705), p-IκBα (S32), IκBα, p-SYK (Y525/526), p-BTK (Y223), PI3Kγ, PTEN, and actin.
On the technique in general: A western blot detects proteins with antibodies after separation by electrophoresis.

The conditions of data set [4]: cited from earlier work.
Another data set has as its system parental TMD-8. Nature of the data set: 96-hour Cell Titer Glo viability assay, parental line. Also noted: Emax: dose or concentration left out as unconfirmed. To be noted: Homo sapiens.

On to `CC#CC(=O)N1CC[C@@H](n2c(=O)n(-c3ccc(Oc4ccccc4)cc3)c3c(N)ncnc32)C1` [Compound B, 6-amino-9-[(3R)-1-(2-butynoyl)-3-pyrrolidinyl]-7-(4-phenoxyphenyl)-7,9-dihydro-8H-purin-8-one], for which the tumor growth inhibition in the data set with TMD8 tumor xenograft (10 mg/kg BID, P<0.05) turned out to be 75%. For the same molecule, the “tumor growth” value with TMD8 tumor xenograft is “did not inhibit tumor growth”. The “c-MYC signal, IHC” value in the data set on c-MYC [1] is listed as “did not reduce”. Also, in the data set with p-S6 S235/236, the “p-S6 signal, IHC” value is recorded as “did not reduce”.
One may read the EC50 as the midpoint of the concentration-response curve. By inhibition is commonly meant the share of the control response that was lost under treatment. One may read the Cmax as the maximum level reached in the sampled fluid or tissue. For `CCC(Nc1ncnc2[nH]cnc12)c1nc2cccc(F)c2c(=O)n1-c1ccccc1` (stereo not drawn) [Idelalisib, 2-(1-((9H-Purin-6-yl)amino)propyl)-5-fluoro-3-phenylquinazolin-4(3H)-one], the EC50 in the data set on TMD8 was 42 nM; in data set [2] (single agent, read-out: EC50, cell viability) it was more than 10000 nM; in the data set with parental TMD-8 (TMD8, read-out: EC50, cell viability) it was 54 nM. Further, the inhibition at 1 µM in data set [2] (at 1 μM, read-out: Growth inhibition) worked out at 19%. Further, the apoptosis with TMD8^R cells (GSK-2334470=1 μM, vehicle control 22%) worked out at 24%; in the data set on TMD8^R cells (MK-2206=1 μM, vehicle control 24%), 21%. For the same molecule, in the data set with c-Myc [3] (500 nM idelalisib, sensitive cell lines (TMD8 and Ri-1)), the “c-Myc mRNA (RNAseq)” value is “c-Myc mRNA downregulation”. In addition, the “c-Myc (western blot)” value in the data set with c-Myc [3] (TMD8^S) is given as “inhibited”. For the same molecule, the “clinical Cmin” value in data set [4] is on record as 103 nM. For the same molecule, in [4] (clinical), the Cmax is 591 nM. Moreover, the Emax in the data set with parental TMD-8 (TMD8, read-out: Emax, growth inhibition) came out at 86%.
